By IC50 is commonly meant the point on the concentration scale where inhibition reaches its midpoint. A word on the EC50: it is the concentration at which the effect is half-maximal.

Among the data in patent US11932634B2 (Gilead Sciences, Inc., priority 2021, dated 2024) are IC50 and EC50 values, retold here.

Assay [1] has as its target T1, human DGKα (Homo sapiens, UniProt P23743).
T1 construct: purchased Carna Biosciences'; inferred from the same paragraph's 'obtained from Carna Biosciences')
Put plainly: DGKα Biochemical Activity Assay (ADP-Glo).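 Further: recombinant enzyme converting diacylglycerol in lipid micelles with ATP, ADP formed detected by luminescence, IC50 from a four-parameter nonlinear fit, geometric mean across experiments.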 On the technique in general: ADP-Glo turns the ADP formed in a reaction into a luminescent signal.

Assay [2] has as its system Jurkat NFκB-luciferase cells. Briefly: Jurkat NFκB-Luciferase Assay.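 Further: bioluminescence read-out normalized to DMSO basal activation and to maximum enhancement at 1 µM compound, rising signal indicating stronger T-cell activation through DGKα inhibition.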 It is filed as cell-based. The conditions noted are these: Homo sapiens; Jurkat NFκB-luciferase cells activated with anti-CD3 antibody (OKT3), 2.5 hrs at 37° C., One-Glo Ex; geometric mean; read-out: DGK NFKb Luciferase EC50.

T1 sequence (P23743 whole entry): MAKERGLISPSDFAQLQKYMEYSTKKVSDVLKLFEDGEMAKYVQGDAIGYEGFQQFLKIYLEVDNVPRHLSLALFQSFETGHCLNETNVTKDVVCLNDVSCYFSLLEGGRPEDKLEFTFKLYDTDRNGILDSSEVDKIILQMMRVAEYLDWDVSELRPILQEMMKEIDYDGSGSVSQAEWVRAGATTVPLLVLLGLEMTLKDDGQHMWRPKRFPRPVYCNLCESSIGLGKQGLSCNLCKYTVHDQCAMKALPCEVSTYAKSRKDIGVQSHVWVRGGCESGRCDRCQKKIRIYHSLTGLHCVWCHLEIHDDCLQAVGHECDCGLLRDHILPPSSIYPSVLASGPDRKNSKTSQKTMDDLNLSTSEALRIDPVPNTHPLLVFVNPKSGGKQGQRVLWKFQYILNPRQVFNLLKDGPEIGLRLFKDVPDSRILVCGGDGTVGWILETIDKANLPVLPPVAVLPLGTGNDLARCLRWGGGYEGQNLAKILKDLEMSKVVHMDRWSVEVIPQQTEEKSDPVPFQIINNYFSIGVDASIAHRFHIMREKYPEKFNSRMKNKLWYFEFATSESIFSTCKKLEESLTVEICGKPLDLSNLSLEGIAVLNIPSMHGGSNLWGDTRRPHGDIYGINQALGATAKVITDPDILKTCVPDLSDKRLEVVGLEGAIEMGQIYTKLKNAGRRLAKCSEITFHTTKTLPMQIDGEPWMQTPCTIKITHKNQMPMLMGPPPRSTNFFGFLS

For the compound `[2H]C([2H])([2H])n1c(=O)nc(N2CCOCc3c(C#CC(C)(C)C(F)(F)F)cccc32)c2c(F)cccc21` [Example 109, 5-fluoro-1-(methyl-d3)-4-(6-(4,4,4-trifluoro-3,3-dimethylbut-1-yn-1-yl)-2,3-dihydrobenzo[e][1,4]oxazepin-1(5H)-yl)quinazolin-2(1H)-one], in assay [1], half-maximal inhibition (IC50) was put at 6.05 nM. Further, the EC50 in assay [2] amounted to 0.501 nM.
On the same counts, the results for `[2H]C([2H])([2H])n1c(=O)nc(N2CCCc3c(C#CC4CCCN4CC(F)F)cccc32)c2c(F)cccc21` (stereo not drawn) [Example 162, 4-[5-[2-[1-(2,2-difluoroethyl)pyrrolidin-2-yl]ethynyl]-3,4-dihydro-2H-quinolin-1-yl]-5-fluoro-1-(trideuteriomethyl)quinazolin-2-one] are 9.27 nM and 1.26 nM.
For the compound `CC(F)(F)C1(C#Cc2nccc3c2CCCN3c2nc(=O)[nH]c3ccc(F)c(F)c23)CC1` [Example 134, 4-[5-[2-[1-(1,1-difluoroethyl)cyclopropyl]ethynyl]-3,4-dihydro-2H-1,6-naphthyridin-1-yl]-5,6-difluoro-1H-quinazolin-2-one], in assay [1], half-maximal inhibition (IC50) required 14.4 nM. Further, in assay [2], the half-maximal effective concentration (EC50) was found to be 2.52 nM.
In assay [1], `[2H]C([2H])([2H])n1c(=O)nc(N(CC(F)F)c2ccnc(C#Cc3cnn(C)c3)c2)c2c(F)c(F)ccc21` [Example 120, 4-[2,2-difluoroethyl-[2-[2-(1-methylpyrazol-4-yl)ethynyl]-4-pyridyl]amino]-5,6-difluoro-1-(trideuteriomethyl)quinazolin-2-one] showed an IC50 of 5.77 nM. For the same compound, the concentration for a half-maximal effect (EC50) in assay [2] was found to be 34.9 nM.
In the case of `CN(c1cccc(-c2ccc(N3CCCC3)nc2)c1)c1nc(=O)n(C)c2cc(Cl)ccc12` [Example 7, 7-chloro-1-methyl-4-[N-methyl-3-(6-pyrrolidin-1-yl-3-pyridyl)anilino]quinazolin-2-one], the IC50 in assay [1] is 17.9 nM. Further, the EC50 in assay [2] worked out at 0.675 nM.
Compound `[2H]C([2H])([2H])n1c(=O)nc(N(CC(F)(F)F)c2cccc(C#CC3(C(F)(F)F)CC3)c2)c2ccc(Cl)cc21` [Example 25, 7-chloro-1-(trideuteriomethyl)-4-[N-(2,2,2-trifluoroethyl)-3-[2-[1-(trifluoromethyl)cyclopropyl]ethynyl]anilino]quinazolin-2-one] gave an IC50 in assay [1] of 58.8 nM. In addition, the EC50 in assay [2] turned out to be 0.405 nM.
`[2H]C([2H])([2H])n1c(=O)nc(N(CC(F)F)c2ccnc(C#CC3(C(F)(F)F)CC3)c2F)c2c(F)cccc21` [Example 124, 4-[2,2-difluoroethyl-[3-fluoro-2-[2-[1-(trifluoromethyl)cyclopropyl]ethynyl]-4-pyridyl]amino]-5-fluoro-1-(trideuteriomethyl)quinazolin-2-one] returned an IC50 in assay [1] of 12 nM. Moreover, in assay [2], the EC50 worked out at 1.27 nM.
As for `CC(C)(O)C#Cc1cccc2c1CCCN2c1nc(=O)[nH]c2cccc(F)c12` [Example 43, 5-fluoro-4-[5-(3-hydroxy-3-methyl-but-1-ynyl)-3,4-dihydro-2H-quinolin-1-yl]-1H-quinazolin-2-one], inhibition in assay [1] was half-maximal at 1.84 nM (IC50). Besides, the EC50 in assay [2] amounted to 2.53 nM.
For `CN(c1cccc(-c2ccc(C3CC3)cc2)c1)c1nc(=O)n(C)c2cc(Cl)ccc12` [Example 2, 7-chloro-4-[3-(4-cyclopropylphenyl)-N-methyl-anilino]-1-methyl-quinazolin-2-one], it took 15.1 nM to reach half-maximal inhibition in assay [1] (IC50). Moreover, the concentration for a half-maximal effect (EC50) in assay [2] was 0.479 nM.
With `[2H]C([2H])([2H])n1c(=O)nc(N2CCCOc3c(C#CC4(C)CC4)cccc32)c2c(F)cccc21` [Example 84, 5-fluoro-4-[9-[2-(1-methylcyclopropyl)ethynyl]-3,4-dihydro-2H-1,5-benzoxazepin-5-yl]-1-(trideuteriomethyl)quinazolin-2-one], the IC50 in assay [1] turned out to be 3.67 nM. Also, in assay [2], the EC50 amounted to 0.461 nM.
In assay [1], `CC(C)(O)C#Cc1cccc(N(CC(F)F)c2nc(=O)[nH]c3cccc(F)c23)c1F` [Example 59, 4-[N-(2,2-difluoroethyl)-2-fluoro-3-(3-hydroxy-3-methyl-but-1-ynyl)anilino]-5-fluoro-M-quinazolin-2-one] came in with a concentration for half-maximal inhibition (IC50) of 7.63 nM. Further, the half-maximal effective concentration (EC50) in assay [2] was determined as 14.5 nM.
In the same order, the values of `[2H]C([2H])([2H])n1c(=O)nc(N2CCOCc3c(C#CC(C)(C)O)cccc32)c2c(F)c(F)ccc21` [Example 97, 5,6-difluoro-4-[6-(3-hydroxy-3-methyl-but-1-ynyl)-3,5-dihydro-2H-4,1-benzoxazepin-1-yl]-1-(trideuteriomethyl)quinazolin-2-one] are 4.37 nM and 15.8 nM.
`CC(C)(O)C#Cc1cccc2c1CCCCN2c1nc(=O)[nH]c2cccc(F)c12` [Example 81, 5-fluoro-4-[6-(3-hydroxy-3-methyl-but-1-ynyl)-2,3,4,5-tetrahydro-1-benzazepin-1-yl]-1H-quinazolin-2-one]: in assay [1], 3.6 nM corresponded to half-maximal inhibition (IC50). The EC50 in assay [2] was 2.5 nM.
The compound `CN(c1cccc(-c2ccc(N3CCCS3(=O)=O)cc2)c1)c1nc(=O)[nH]c2cc(Cl)ccc12` [Example 9, 7-chloro-4-[3-[4-(1,1-dioxo-1,2-thiazolidin-2-yl)phenyl]-N-methyl-anilino]-1H-quinazolin-2-one] came in with an IC50 in assay [1] of 33.3 nM. In addition, the EC50 in assay [2] amounted to 5.03 nM.
In assay [1], `CC1(C#Cc2cncc3c2CCCN3c2nc(=O)[nH]c3ccc(F)c(F)c23)CC1` [Example 107, 5,6-difluoro-4-(5-((1-methylcyclopropyl)ethynyl)-3,4-dihydro-1,7-naphthyridin-1(2H)-yl)quinazolin-2(1H)-one] displayed an IC50 of 7.96 nM. Also, the EC50 in assay [2] was found to be 0.596 nM.
On to `CC(C)(C#N)C#Cc1cc(F)cc(N(CC(F)F)c2nc(=O)[nH]c3ccc(F)c(F)c23)c1` [Example 69, 4-[3-[2,2-difluoroethyl-(5,6-difluoro-2-oxo-1H-quinazolin-4-yl)amino]-5-fluoro-phenyl]-2,2-dimethyl-but-3-ynenitrile], for which the IC50 in assay [1] stood at 26.7 nM. Also, the EC50 in assay [2] was 1.8 nM.
`[2H]C([2H])([2H])n1c(=O)nc(N2CCOCc3c(C#CC45CC(CN4CC(F)F)C5)cccc32)c2c(F)cccc21` [Example 173, 4-[6-[2-[2-(2,2-difluoroethyl)-2-azabicyclo[2.1.1]hexan-1-yl]ethynyl]-3,5-dihydro-2H-4,1-benzoxazepin-1-yl]-5-fluoro-1-(trideuteriomethyl)quinazolin-2-one] had an IC50 in assay [1] of 0.731 nM. The EC50 in assay [2] was 0.401 nM.
Take `CN(c1cccc(C#CC(C)(C)O)c1)c1nc(=O)n(C)c2cc(Cl)ccc12` [Example 4, 7-chloro-4-[3-(3-hydroxy-3-methyl-but-1-ynyl)-N-methyl-anilino]-1-methyl-quinazolin-2-one]: half-maximal inhibition in assay [1] (IC50) was put at 17 nM. In assay [2], the EC50 was 4.56 nM.
`[2H]C([2H])([2H])n1c(=O)nc(N(CC(F)F)c2cc(F)cc(C#CC(C)(C)O)c2)c2c(F)c(F)ccc21` [Example 64, 4-[N-(2,2-difluoroethyl)-3-fluoro-5-(3-hydroxy-3-methyl-but-1-ynyl)anilino]-5,6-difluoro-1-(trideuteriomethyl)quinazolin-2-one]: it took 10.7 nM to reach half-maximal inhibition in assay [1] (IC50). Besides, the concentration giving a half-maximal response (EC50) in assay [2] was 8.99 nM.
On the same counts, the results for `[2H]C([2H])([2H])n1c(=O)nc(N(C)c2cc(F)cc(C#CC3(C(F)(F)F)CC3)c2)c2ccc(Cl)cc21` [Example 15, 7-chloro-4-[3-fluoro-N-methyl-5-[2-[1-(trifluoromethyl)cyclopropyl]ethynyl]anilino]-1-(trideuteriomethyl)quinazolin-2-one] are 27.3 nM and 0.557 nM.
Compound `[2H]C([2H])([2H])n1c(=O)nc(N2CCOCc3c(C#CC(C)(C)N)cccc32)c2c(F)cccc21` [Example 175, 4-(6-(3-amino-3-methylbut-1-yn-1-yl)-2,3-dihydrobenzo[e][1,4]oxazepin-1(5H)-yl)-5-fluoro-1-(methyl-d3)quinazolin-2(1H)-one] came in with a half-inhibitory concentration (IC50) in assay [1] of 122 nM. Further, the concentration for a half-maximal effect (EC50) in assay [2] was 21.3 nM.
`CC(C)(O)C#Cc1nccc(N(CC(F)F)c2nc(=O)[nH]c3cccc(F)c23)c1F` [Example 113, 4-[2,2-difluoroethyl-[3-fluoro-2-(3-hydroxy-3-methyl-but-1-ynyl)-4-pyridyl]amino]-5-fluoro-1H-quinazolin-2-one] gave a half-inhibitory concentration (IC50) in assay [1] of 10.4 nM. For the same compound, in assay [2], the EC50 came to 66.3 nM.
In assay [1], `O=c1nc(N(CC(F)F)c2cc(F)cc(C#CC3(C(F)(F)F)CC3)c2)c2c(F)cccc2[nH]1` [Example 16, 4-[N-(2,2-difluoroethyl)-3-fluoro-5-[2-[1-(trifluoromethyl)cyclopropyl]ethynyl]anilino]-5-fluoro-1H-quinazolin-2-one] registered an IC50 of 252 nM. Further, the concentration for a half-maximal effect (EC50) in assay [2] amounted to 1.19 nM.
In assay [1], `CC1(C#Cc2cccc3c2CCCCN3c2nc(=O)[nH]c3cccc(F)c23)CC1` [Example 157, 5-fluoro-4-(6-((1-methylcyclopropyl)ethynyl)-2,3,4,5-tetrahydro-1H-benzo[b]azepin-1-yl)quinazolin-2(1H)-one] gave a half-maximal inhibitory concentration (IC50) of 26 nM. Moreover, the 50% effective concentration (EC50) in assay [2] worked out at 0.58 nM.
As to `CC(C)(O)CC#Cc1cccc2c1CCCN2c1nc(=O)[nH]c2cccc(F)c12` [Example 54, 5-fluoro-4-[5-(4-hydroxy-4-methyl-pent-1-ynyl)-3,4-dihydro-2H-quinolin-1-yl]-M-quinazolin-2-one], in assay [1], the IC50 amounted to 23.6 nM. Moreover, the EC50 in assay [2] was 8.22 nM.
Turning to `[2H]C([2H])([2H])n1c(=O)nc(N(CC(F)F)c2ccnc(C#CC3(C(F)F)CC3)c2F)c2c(F)cccc21` [Example 129, 4-[2,2-difluoroethyl-[2-[2-[1-(difluoromethyl)cyclopropyl]ethynyl]-3-fluoro-4-pyridyl]amino]-5-fluoro-1-(trideuteriomethyl)quinazolin-2-one], the IC50 in assay [1] worked out at 2.82 nM. For the same compound, the concentration giving a half-maximal response (EC50) in assay [2] is 4.26 nM.
In assay [1], `[2H]C([2H])([2H])n1c(=O)nc(N(CC(F)F)c2ccnc(C#CC3(C)CC3)c2)c2c(F)cccc21` [Example 138, 4-[2,2-difluoroethyl-[2-[2-(1-methylcyclopropyl)ethynyl]-4-pyridyl]amino]-5-fluoro-1-(trideuteriomethyl)quinazolin-2-one] yielded an IC50 of 6.83 nM. In addition, in assay [2], the concentration giving a half-maximal response (EC50) is 4.59 nM.
